The text below walks through data of patent US20110212100A1, “METHODS FOR MODULATING DEVELOPMENT AND EXPANSION OF IL-17 EXPRESSING CELLS” (priority 2007, published 2011).

Several values for one entry are separate records, joined by “and”; a condition that tells them apart may be missing. Equal entries are not always repeated.

This experiment deals with FoxP3 expression in CD4+ CD25− T cells. Put plainly: Foxp3 (Treg marker) expression in TGFβ/IL-6 treated T cells. It counts as cell-based, mouse. How it is done: Low doses of halofuginone (HF) were tested to determine the ability of HF to enhance Treg differentiation, while suppressing Th17 differentiation. Nave. CD4+ T cells (CD4+ CD25−) were isolated from the spleen and peripheral lymph nodes of C57B/6 mice. T cells were then activated using anti-CD3 (0.3 μg/ml) and anti-CD28 (0.5 μg/ml) antibodies either in media alone (row 1, 4), TGFβ alone (3 ng/ml—row 2, 5) or TGFβ (3 ng/ml) plus IL-6 (30 ng/ml) (row 3, 6). […] T cells were cultured for 3 days and CD25 and Foxp3 expression (Treg marker genes) was determine by FACS staining and flow cytometric analyses. Simultaneously, T cells were harvested and re-stimulated for 4 hours using phorbol myristic acetate (PMA; 10 nM), Ionomycin (1 μM) and cytokine secretion was prevented using brefeldin A (20 μg/ml). Following stimulation, the production of IL-17 and IFNγ were determined by intracellular staining and analyzed via flow cytometry. […]
FACS analyses and sorting: All cell surface staining was performed in FACS buffer (PBS/2% FCS/0.1% NaN3) and antibodies were incubated with cells on ice for 20-30 minutes. […] All FACS data was acquired on a FACSCalibur flow cytometer (BD Pharmingen) and analyzed using FlowJo software (Treestar, Inc., Ashland, Oreg.). […]

As for `O=C(CC1NCCCC1O)Cn1cnc2cc(Br)c(Cl)cc2c1=O` (racemic) [HF, 7-bromo-6-chloro-3-[3-(3-hydroxy-2-piperidinyl)-2-oxopropyl]-4(3H)-quinazolinone], the “Foxp3 expression of T cells differentiated in the presence of HF, in words” value (10 nM HF, TGFβ plus IL-6, day 3) is given as “enhanced Foxp3 expression”. Further, the “concentration increasing FoxP3 expression concomitantly with inhibiting IL-17 expression” value (TGFβ/IL-6 treated T-cells) was 2.5 to 10 nM and 2.2 to 10 nM.
